# Data published in patent US20230303710A1, “METHODS AND COMPOSITIONS FOR INHIBITION OF DIHYDROOROTATE DEHYDROGENASE IN COMBINATION WITH AN ANTI-CD38 THERAPEUTIC AGENT” (OHIO STATE INNOVATION FOUNDATION, priority 2019, published 2023).
# Tests used:
# [1] = tested on: MV-411 cells with mutant p53; assay: CD38 surface expression by flow cytometry in MV-411 cells with mutant p53; assay type: cell-based; settings: 1 µM, 72 hours, versus vehicle
# Protocol: (§1) FIGS. 1A-1B show representative data for the effect of a representative DHODH inhibitor on the expression of CD38 in AML cells. Briefly, MV-411 cells with wild type (WT) p53 (FIG. 1A) or mutant p53 (FIG. 1B) were treated with brequinar (BRQ, 1 µM), or Cpd3 (1 µM) for 72 hours, and then the CD38 surface expression was determined by flow cytometry. The CD38 mean fluorescent intensity (MFI) is calculated based on the X-median expression.
# (§2) MV-411 cells with wild type (WT) p53 or mutant p53 were treated with brequinar (BRQ, 1 µM), or Cpd3 (1 µM) for 72 hours. CD38 surface expression was determined by flow cytometry. The CD38 mean fluorescent intensity (MFI) is calculated based on the X-median expression. FIG. 1A show data obtained with MV-411 having wild type p53. […] FIG. 1B show the results obtained with MV-411 having a mutant p53.
# [2] = tested on: MV-411 cells with wild type (WT) p53; assay: CD38 surface expression by flow cytometry in MV-411 cells with wild type p53; assay type: cell-based; settings: 1 µM, 72 hours, versus vehicle
# Protocol: as §1, §2
# MV4-11 cells = assay: MV4-11 xenograft (secondary engraftment) survival study in NSG mice; assay type: in vivo; settings: Cpd3 50 mg/kg PO MWF, daratumumab 1 µg/g IP TF
# Protocol: FIGS. 2A-2D show representative data for the effect of a representative DHODH inhibitor in combination with an anti-CD38 antibody in a mouse xenograft model. FIG. 2A show representative data for percent survival versus time post-engraftment. Briefly, NSG mice were injected with 0.3 × 10^6 spleen cells from an MV4-11 engrafted leukemic donor mouse (N=7 per group). Starting at day 7 post-engraftment, mice were treated with vehicle; 50 mg/kg Cpd3 (PO; indicated as “Cpd3 PO” in the figure) on a dosing schedule of Monday/Wednesday/Friday (MWF); 1 µg/g daratumumab (IP; indicated as “Dara IP” in the figure) on a dosing schedule of Tuesday and Friday (TF); or Cpd3 and daratumumab combination (indicated as “Cpd3+Dara” in the figure). The Cpd3 and daratumumab combination treatment comprised dosing with 50 mg/kg Cpd3 on a dosing scheduled of Monday/Wednesday/Friday and dosing with 1 µg/g daratumumab on a dosing schedule of Tuesday and Friday (TF). Mice were monitored until reaching early/end removal criteria (ERC) and overall survival was calculated using Kapler Meyer analysis. The arrow indicates start of treatment. […] The treatment type is indicated below each photographic image as outlined for FIG. 2A. […] Weight loss is typically associated with leukemia progression and has also been associated with DHODH inhibitor treatment. […] Briefly, Spleens were isolated from the animals from each treatment group as they reached ERC. The percentage of human CD45+ cells in the spleen were determined by flow cytometry.
# Xenograft Model Methodology. Animal studies were approved by the Institutional Laboratory Animal Care and Use Committee (IACUC) at the Ohio State University. 1E7 M4-11 cells were engrafted intravenously into NSG mice (males, 12-week old, strain NOD.Cg-Prkdcscid ll2rgtm1Wjl/SzJ). These mice were allowed to develop a fatal leukemia, at which point splenocytes containing leukemia cells were collected and cryopreserved. […] Overall survival was calculated using Kapler Meyer analysis. […]
# MOLM-13 cells = assay: MOLM-13 xenograft survival study in NCG mice; assay type: in vivo; settings: Cpd4 10 mg/kg PO TIWK (MWF); Daratumumab 1 µg/g IP TF; Isatuximab 2.5 mg/kg IP TF; start 4 days post engraftment; vehicle 16.5
# Protocol: Xenograft Model Methodology. Animal studies were performed at Charles River Laboratories (CRL). 1E5 MOLM-13 cells were engrafted intravenously into NCG mice (males, 8-12-week old). 4 days post engraftment, mice were randomly enrolled to receive: • 1. Vehicle • 2. 10 mg/kg Cpd 53 orally (daily) • 3. 10 mg/kg Cpd 53 orally (TIWK, Monday, Wednesday, and Friday) • 4. 4 mg/kg BAY2402234 orally (daily) • 5. 1 µg/g Daratumumab via intraperitoneal injection (BIWK, Tuesday and Friday) • 6. 2.5 µg/g Isatuximab via intraperitoneal injection (BIWK, Tuesday and Friday) • 7. Cpd4 (daily) and Daratumumab (BIWK) combination • 8. Cpd4 (TIWK) and Daratumumab (BIWK) combination • 9. BAY2402234 (daily) and Daratumumab (BIWK) combination • 10. Cpd4 (daily) and Isatuximab (BIWK) combination • 11. […]
# Procedures used in the study are as follows: • Mice with 1×10^5 MOLM-13 tumor cells in 0% Matrigel iv tail vein. • Study start is 4 days post implant • Animals were randomized into treatment groups based on Day 1 bodyweight. • Cell Injection Volume was 0.2 mL/mouse. • Age at Start Date: 8 to 12 weeks. • Body Weight: qd x 5 then biwk to end • Any individual animal with a single observation of > than 30% body weight loss or three consecutive measurements of >25% body weight loss was euthanized. • Any group with a mean body weight loss of >20 % or >10% mortality ceased dosing. […] Animals were to be monitored individually. […]
# [3] = tested on: a variety of unrelated viruses; settings: Harvey et al. (2009) Antiviral Res.; read-out: EC50, inhibition of virus replication in vitro; cited from earlier work
structure (smiles),measurement,setting,value
"CCOc1ccc(-c2ccc(-c3cc(C(=O)O)c4cc(F)ccc4n3)cc2)cc1 [Cpd3, 2-(4′-ethoxy-[1,1′-biphenyl]-4-yl)-6-fluoroquinoline-4-carboxylic acid]",CD38 surface expression (mean fluorescent intensity),[1],highly upregulated
same,CD38 surface expression (mean fluorescent intensity),[2],upregulated
same,survival compared to the vehicle treatment control group / other treatment groups,MV4-11 cells; FIG. 2A,modest improvement in survival
same,Estimated median survival time (days PE),"MV4-11 cells; start day 7 post-engraftment, vehicle 35 days",42 days
same,N died,"MV4-11 cells; N=7 per group, start day 7 post-engraftment",7
"CCCCOc1cccc(-c2ccc(-c3cc(C(=O)O)c4cc(F)ccc4n3)cc2)c1 [Cpd4, 2-(3′-butoxy-[1,1′-biphenyl]-4-yl)-6-fluoroquinoline-4-carboxylic acid]",Median survival,MOLM-13 cells,43 days
O=C(N[C@@H]1CCCc2c1[nH]c1ccc(Cl)cc21)c1ccccn1 [GSK983],EC50,[3],5 to 20 nM
"Cc1c(-c2ccc(-c3ccccc3F)cc2)nc2ccc(F)cc2c1C(=O)O [brequinar, reference compound]",CD38 surface expression (mean fluorescent intensity),[1],highly upregulated
same,CD38 surface expression (mean fluorescent intensity),[2],upregulated
